According to the NIST ThermoML archive (doi:10.1021/je100577v):
± gives the expanded uncertainty stated by the source.

Experiment: xn = mol fraction of the nth substance listed
Details: Liquid, Vibrating tube method

CC12CCC(CC1)C(C)(C)O2 [1,3,3-trimethyl-2-oxabicyclo[2.2.2]octane] + CCCO
mass density [kg/m3]
Details	20000 kPa	25000 kPa	30000 kPa	35000 kPa	40000 kPa
283.15 K, x1 = 0.0499	839.5 ± 1	842.9 ± 1	845.8 ± 1	848.9 ± 1	851.6 ± 1
283.15 K, x1 = 0.1061	853.7 ± 1	856.9 ± 1	859.8 ± 1	862.8 ± 1	865.5 ± 1
283.15 K, x1 = 0.2029	873.3 ± 1	876.4 ± 1	879.3 ± 1	882.3 ± 1	885 ± 1
283.15 K, x1 = 0.3028	889.7 ± 1	892.8 ± 1	895.6 ± 1	898.6 ± 1	901.4 ± 1
283.15 K, x1 = 0.3955	901.8 ± 1	905 ± 1	907.9 ± 1	910.7 ± 1	913.5 ± 1
283.15 K, x1 = 0.4938	912.4 ± 1	915.6 ± 1	918.5 ± 1	921.3 ± 1	924 ± 1
283.15 K, x1 = 0.5904	921.2 ± 1	924.4 ± 1	927.3 ± 1	930.1 ± 1	932.9 ± 1
283.15 K, x1 = 0.7	929.6 ± 1	932.8 ± 1	935.7 ± 1	938.5 ± 1	941.2 ± 1
283.15 K, x1 = 0.7915	935.7 ± 1	938.9 ± 1	941.7 ± 1	944.6 ± 1	947.3 ± 1
283.15 K, x1 = 0.8954	941.2 ± 1	944.3 ± 1	947.2 ± 1	950.1 ± 1	952.8 ± 1
283.15 K, x1 = 0.9332	942.9 ± 1	946.1 ± 1	949 ± 1	951.8 ± 1	954.5 ± 1
283.15 K, x1 = 1	945.9 ± 1	949.1 ± 1	952 ± 1	954.9 ± 1	957.6 ± 1
298.15 K, x1 = 0.0499	828.6 ± 1	831.8 ± 1	835.1 ± 1	838.1 ± 1	841.2 ± 1.1
298.15 K, x1 = 0.1061	842.6 ± 1	845.8 ± 1	849 ± 1	852 ± 1	855 ± 1
298.15 K, x1 = 0.2029	862 ± 1	865.2 ± 1	868.4 ± 1	871.4 ± 1	874.4 ± 1
298.15 K, x1 = 0.3028	878.3 ± 1	881.6 ± 1	884.7 ± 1	887.7 ± 1	890.6 ± 1
298.15 K, x1 = 0.3955	890.5 ± 1	893.7 ± 1	896.7 ± 1	899.8 ± 1	902.7 ± 1
298.15 K, x1 = 0.4938	901 ± 1	904.3 ± 1	907.3 ± 1	910.3 ± 1	913.2 ± 1
298.15 K, x1 = 0.5904	909.7 ± 1	912.9 ± 1	915.9 ± 1	918.9 ± 1	921.9 ± 1
298.15 K, x1 = 0.7	917.9 ± 1	921.1 ± 1	924.2 ± 1	927.1 ± 1	930.1 ± 1
298.15 K, x1 = 0.7915	923.9 ± 1	927.1 ± 1	930.2 ± 1	933.2 ± 1	936.1 ± 1
298.15 K, x1 = 0.8954	929.4 ± 1	932.6 ± 1	935.7 ± 1	938.8 ± 1	941.6 ± 1
298.15 K, x1 = 0.9332	931.1 ± 1	934.3 ± 1	937.3 ± 1	940.3 ± 1	943.3 ± 1
298.15 K, x1 = 1	934.1 ± 1	937.4 ± 1	940.5 ± 1	943.4 ± 1	946.4 ± 1
313.15 K, x1 = 0.0499	817.1 ± 1	820.8 ± 1	824.3 ± 1	827.5 ± 1.1	830.7 ± 1.1
313.15 K, x1 = 0.1061	831 ± 1	834.7 ± 1	838.1 ± 1	841.3 ± 1	844.5 ± 1.1
313.15 K, x1 = 0.2029	850.4 ± 1	854 ± 1	857.4 ± 1	860.7 ± 1	863.9 ± 1
313.15 K, x1 = 0.3028	866.6 ± 1	870.2 ± 1	873.5 ± 1	876.7 ± 1	879.8 ± 1
313.15 K, x1 = 0.3955	878.6 ± 1	882.2 ± 1	885.5 ± 1	888.7 ± 1	891.7 ± 1
313.15 K, x1 = 0.4938	889.1 ± 1	892.6 ± 1	895.9 ± 1	899 ± 1	902.1 ± 1
313.15 K, x1 = 0.5904	897.7 ± 1	901.2 ± 1	904.5 ± 1	907.6 ± 1	910.8 ± 1
313.15 K, x1 = 0.7	905.8 ± 1	909.3 ± 1	912.6 ± 1	915.8 ± 1	918.9 ± 1
313.15 K, x1 = 0.7915	911.8 ± 1	915.3 ± 1	918.6 ± 1	921.8 ± 1	924.9 ± 1
313.15 K, x1 = 0.8954	917.3 ± 1	920.8 ± 1	924 ± 1	927.3 ± 1	930.5 ± 1
313.15 K, x1 = 0.9332	919.1 ± 1	922.5 ± 1	925.9 ± 1	929.1 ± 1	932.2 ± 1
313.15 K, x1 = 1	922.3 ± 1	925.8 ± 1	929.1 ± 1	932.4 ± 1	935.5 ± 1
328.15 K, x1 = 0.0499	805.9 ± 1	809.7 ± 1	813.3 ± 1	816.8 ± 1.1	820.2 ± 1.1
328.15 K, x1 = 0.1061	819.7 ± 1	823.5 ± 1	827.1 ± 1	830.6 ± 1.1	833.9 ± 1.1
328.15 K, x1 = 0.2029	838.9 ± 1	842.6 ± 1	846.3 ± 1	849.6 ± 1	853.1 ± 1
328.15 K, x1 = 0.3028	854.9 ± 1	858.6 ± 1	862.1 ± 1	865.6 ± 1	868.9 ± 1
328.15 K, x1 = 0.3955	866.9 ± 1	870.5 ± 1	874 ± 1	877.4 ± 1	880.9 ± 1
328.15 K, x1 = 0.4938	877.2 ± 1	880.9 ± 1	884.4 ± 1	887.9 ± 1	891.2 ± 1
328.15 K, x1 = 0.5904	885.9 ± 1	889.6 ± 1	893.1 ± 1	896.5 ± 1	899.9 ± 1
328.15 K, x1 = 0.7	894 ± 1	897.7 ± 1	901.2 ± 1	904.6 ± 1	908 ± 1
328.15 K, x1 = 0.7915	899.9 ± 1	903.7 ± 1	907.2 ± 1	910.5 ± 1	913.9 ± 1
328.15 K, x1 = 0.8954	905.5 ± 1	909.3 ± 1	912.7 ± 1	916.2 ± 1	919.5 ± 1
328.15 K, x1 = 0.9332	907.3 ± 1	911 ± 1	914.5 ± 1	917.9 ± 1	921.3 ± 1
328.15 K, x1 = 1	910.6 ± 1	914.3 ± 1	917.9 ± 1	921.3 ± 1	924.7 ± 1
